According to patent US20080003438A1, “Heterocyclic siloxanes for use in biocidal coatings and materials” (Auburn University, priority 2002, published 2008):

How the values were obtained:
Staphylococcus aureus = assay: Antimicrobial activity of cotton textiles coated with acyclic silane; format: cell-based
Protocol: Cotton textiles were coated with 3-aminopropyltriethoxysilane by exposure to aqueous solutions of 5% of this compound, followed by curing the woven fabric at 100° C. for 60 minutes in air, or by use of a household dryer on high setting for 30 minutes. Swatches of the treated fabric were charged with chlorine, and then challenged with suspensions of Staphylococcus aureus; enumeration of recovery was accomplished using the methods described in Example 11. Chlorine contents of charged oven-cured textiles ranged up to 5000 ppm (5 mg per g of material) immediately after drying, but diminished to 2300 ppm in approximately 14 days at 20° C. Chlorine concentrations in dryer-prepared swatches were never higher than 2500 ppm, even when fresh. Reductions of viable organisms in freshly chlorinated oven-dried swatches were in excess of 4 logs, after as little as 15 minutes of contact. Longer contact times (30 minutes) were required to reach this level of efficacy in dryer-cured textiles.

[1] = Chlorine loading of coated, chlorinated surfaces by iodometric/thiosulfate titration; format: physicochemical; settings: for chlorine content of charged textile: oven-cured; for chlorine loading on coated cotton swatches: chlorinated with 5% CLOROX at ambient temperature for 45 minutes
Protocol: Swatches of Style 400 Bleached 100% Cotton Print Cloth (Testfabrics, Inc.) were treated with 3-triethoxysilylpropyl-5,5-dimethylhydantoin, prepared as described in Example 1, in the following manner. A treatment bath was prepared containing 5.0 g of 3-triethoxysilylpropyl-5,5-dimethylhydantoin, 3.0 g of potassium thiocyanate, 50 mL of ethanol, and 50 mL of water. After 1 hour of equilibration of the bath mixture, the cotton swatches were soaked in the bath for 10 min. After partially drying in air at ambient temperature, the swatches were cured for 1 hour at 95° C. The swatches were then soaked in a 0.5% liquid detergent solution for 15 min, rinsed with tap water, and allowed to dry in air at ambient temperature. […] The swatches were stored in a vacuum desiccator until use.
The siloxane polymer described above was coated onto 100% cotton fabric. This was accomplished by soaking swatches of the material for about 2 minutes at ambient temperature in a bath containing 5 g of the polysiloxane, 70 mL of ethanol, and 40 mL of water. The swatches were cured at 130° C. in air for 20 minutes, then soaked in 1.5% liquid detergent for 15 minutes at ambient temperature, and then rinsed thoroughly with water. […] An iodometric/thiosulfate titration indicated a chlorine loading on the cotton material of about 0.42%.
Finally, a wash test was performed on swatches of cotton containing the monomer 3-triethoxysilylpropyl-5,5-dimethylhydantoin coating and the polysiloxane coating, each chlorinated and unchlorinated, for comparison purposes. Two treatment baths were prepared, one containing an 8% solution of 3-triethoxysilylpropyl-5,5-dimethylhydantoin in a 50% solution of ethanol in water, the other containing an 8% solution of siloxane polymer prepared as described above in a 66.7% solution of ethanol in water. Identical cotton swatches were soaked in the two baths for 2.5 minutes at ambient temperature, cured in air at 130° C. for 20 minutes, soaked in 1.5% liquid detergent at ambient temperature for 15 minutes, rinsed thoroughly with water, and dried in air at 50° C. for 30 minutes. Then one-half of the swatches of each type were chlorinated by soaking them in 5% CLOROX at ambient temperature for 45 minutes. These chlorinated samples were rinsed thoroughly with water and dried in air at 50° C. for 30 minutes to remove all occluded free chlorine. Iodometric/thiosulfate titrations were performed on representative samples to determine initial chlorine loadings. The average chlorine loading for the silane monomer-coated samples was 0.61%; for the siloxane polymer-coated samples, the average chlorine loading was 0.40%. Then all types of coated swatches were subjected to laundry washing cycles using AATCC Test Method 61 (Test 2A Procedure). Samples were evaluated after 5, 10, and 50 washing cycles for retention of the coatings. Those samples not chlorinated before washing were chlorinated by the procedure described above in order to assess how much chlorine could be loaded after variable numbers of washing cycles. Those chlorinated before washing were divided into two groups with half being assessed for chlorine loading without rechlorination, the other half being rechlorinated and then assessed for chlorine loading. Three observations are clearly evident from the data in Table 3. First, both the silane and the siloxane coatings are partially lost upon successive washings. Second, prechlorination reduces the rate of loss, probably due to increasing the hydrophobicity of the surface, thus reducing the rate of hydrolysis loss of the siloxane coatings. Third, the siloxane coating, which is not chlorinated to as high a level as the silane one upon initial chlorination, is lost at a slower rate than is the silane coating. For all of the coatings, at least partial biocidal efficacy would be regenerated upon rechlorination after 50 washing cycles. […]

S. aureus (ATCC 6538) = assay: Challenge of treated cotton swatches, modified AATCC Method 100; format: cell-based; settings: treated cotton swatches, at 30 minutes
Protocol: (§1) Treated cotton swatches were challenged with S. aureus (ATCC 6538) and Escherichia coli (ATCC 2666) at a concentration of between 10^8 and 10^9 CFU/mL in pH 7 phosphate buffer solution using a modified version of AATCC Method 100. The swatches were quenched with 0.02 N sodium thiosulfate solution at contact times of 10, 30, 60, and 120 min. Serial dilutions of the solutions contacting the swatches were plated on nutrient agar, incubated for 48 hours at 37° C., and plate counts were made to determine the presence of viable bacteria. […] The control sample (cotton soaked in 10% bleach, rinsed, and dried) gave only a 0.4 log reduction at 30 minutes. […] The control sample (cotton soaked in 10% bleach, rinsed, and dried) gave a 0 log reduction at 120 minutes.

[2] = system: Escherichia coli (ATCC 2666); assay: as above; format: cell-based; settings: contact time interval 60-120 minutes
Protocol: as §1

[3] = system: S. aureus bacteria (ATCC 6538); assay: Biocidal efficacy of chlorinated silane compound in water solution; format: cell-based; settings: 100.8 mg/L solution, 11.02 mg/L total chlorine, chlorine-demand-free water pH 7, all contact times 5, 10, 30, 60 min, ambient temperature
Protocol: A 100.8 mg/L solution of the chlorinated silane compound, prepared as described above, containing 11.02 mg/L total chlorine content in chlorine-demand-free water at pH 7 was challenged with S. aureus bacteria (ATCC 6538) for contact times of 5, 10, 30, and 60 min at ambient temperature. Following the contact with the bacteria, further disinfectant action was quenched by adding 0.02 N sodium thiosulfate. Serial dilutions were then plated onto trypticase soy agar, and colony counts were made after 48 hours of incubation at 37° C. No growth was detected on the plates indicating a complete inactivation (>4.9 logs) at all of the contact times. Thus the chlorinated silane compound is biocidal under the conditions tested. Neither lower contact times, nor lower concentrations, were evaluated.

Structure (SMILES): CCO[Si](CCCN)(OCC)OCC [3-aminopropyltriethoxysilane]
- contact time required to reach in excess of 4 logs reduction (Staphylococcus aureus; dryer-cured cotton textiles): 30 minutes
- reduction of viable organisms (Staphylococcus aureus; freshly chlorinated oven-dried cotton swatches, 15 minutes of contact): > 4 logs
- chlorine concentration of charged textile ([1]; cotton, dryer-prepared swatches, even when fresh): ≤ 2500 ppm
- chlorine content of charged textile ([1]; cotton, after approximately 14 days at 20° C.): 2300 ppm
- chlorine content of charged textile ([1]; cotton, immediately after drying): up to 5000 ppm

Structure (SMILES): CCO[Si](CCCNCCN1C(=O)NC(C)(C)C1=O)(OCC)OCC.Cl [3-[2′-(3′-triethoxysilylpropyl)aminoethyl]-5,5-dimethylhydantoin hydrochloride]
- chlorine loading ([1]; cotton swatches, 5% CLOROX 5 minutes): 0.44%
- chlorine loading ([1]; sand (Ottawa Sand Standard, 20-30 mesh), 50% CLOROX 15 minutes): 0.11%

Structure (SMILES): CCCCCCCCCCCCCCCCCC[N+](C)(C)CCC[Si](OC)(OC)OC.[Cl-] [quaternary ammonium salt, dimethyloctadecyltrimethoxysilylpropylammonium chloride, reference compound]
- log reduction of S. aureus (S. aureus (ATCC 6538)): 1.8 log
- log reduction of E. coli [2]: 2.5 logs

Structure (SMILES): CCO[Si](CCCN1C(=O)C(C)(C)NC1(C)C)(OCC)OCC [3-triethoxysilylpropyl-2,2,5,5-tetramethylimidazolidin-4-one]
- chlorine loading on coated cotton swatches ([1]; cotton): 0.114%

Structure (SMILES): CO[Si](CCCN1C(=O)N(Cl)C(C)(C)C1=O)(OC)OC [chlorinated silane compound, 1-chloro-3-trimethoxysilylpropyl-5,5-dimethylhydantoin]
- complete inactivation of S. aureus [3]: > 4.9 logs

Structure (SMILES): CCO[Si](C)(CCCN1C(=O)NC(C)(C)C1=O)OCC [3-diethoxymethylsilylpropyl-5,5-dimethylhydantoin]
- chlorine loading on coated cotton swatches ([1]; cotton): 0.733%
